Assay results taken from patent publication US12139488B2, “Pyrido[3,2-d]pyrimidine compounds uses thereof for treating a proliferative disease” (Universite de Montreal, priority 2021, dated 2024).

Legend:
[1] = biological target: BRAF (Homo sapiens (Human), UniProt P15056); assay: BRAF kinase activity assay (ADP-Glo); format: biochemical; conditions: read-out: Kinase IC50 (nM) BRAF
Method in brief: (§1)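 Compound was tested at nine concentrations (0.01–100 nM, 0.05% DMSO final) against BRAF or CRAF phosphorylating MEK1 with ATP, for 2 h at 30 °C. ADP formed was read by ADP-Glo luminescence, and % inhibition was fitted with a four-parameter log(agonist) model to obtain IC50.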

[2] = biological target: CRAF (Homo sapiens, UniProt P04049); assay: CRAF kinase activity assay (ADP-Glo); format: biochemical; conditions: read-out: Kinase IC50 (nM) CRAF
Sequence of CRAF (P04049 whole entry, looked up): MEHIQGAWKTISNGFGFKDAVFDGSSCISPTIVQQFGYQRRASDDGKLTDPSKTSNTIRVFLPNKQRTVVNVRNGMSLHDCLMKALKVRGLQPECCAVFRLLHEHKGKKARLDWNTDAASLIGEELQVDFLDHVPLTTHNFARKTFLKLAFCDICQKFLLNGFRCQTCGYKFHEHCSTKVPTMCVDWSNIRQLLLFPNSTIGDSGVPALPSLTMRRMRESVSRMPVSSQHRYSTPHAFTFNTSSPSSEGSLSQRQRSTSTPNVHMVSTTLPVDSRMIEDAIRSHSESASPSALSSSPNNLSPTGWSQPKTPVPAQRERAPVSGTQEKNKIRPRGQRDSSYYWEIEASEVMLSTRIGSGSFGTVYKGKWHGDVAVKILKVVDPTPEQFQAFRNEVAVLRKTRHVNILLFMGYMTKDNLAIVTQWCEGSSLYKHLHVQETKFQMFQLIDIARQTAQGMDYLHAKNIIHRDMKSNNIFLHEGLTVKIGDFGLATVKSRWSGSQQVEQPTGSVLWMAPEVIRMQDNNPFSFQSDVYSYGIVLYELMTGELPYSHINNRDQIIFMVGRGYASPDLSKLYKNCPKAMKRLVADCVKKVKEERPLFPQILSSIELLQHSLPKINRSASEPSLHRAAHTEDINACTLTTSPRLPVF
Method in brief: as §1

[3] = tested on: pERK and pMEK in RAS-mutant HCT-116 cells; assay: Immunoblot analysis of pERK and pMEK in HCT-116 cells; format: cell-based, human; conditions: 1 h treatment, FIG. 2
Protocol: For immunoblotting analysis, 500,000 HCT-116 cells were plated in 1 mL of complete RPMI-1640 growth medium in 24-well flat-bottomed transparent dishes (Costar). Cells were maintained overnight at 37° C. under 5% CO2 before treatment with compounds' dilution series for one hour.
Cells were then washed once in PBS and lized in 250 μL of Igepal Lysis Buffer (50 mM Tris-HCl pH 7.5, 150 mM NaCl, 1% Igepal-CA630, 1 mM EDTA, 10% Glycerol) supplemented with Leupeptin, Aprotinin, PMSF, phosphatase inhibitor cocktail (Sigma) and Na3VO4 at 4° C. for 15 minutes with gentle rocking. Cell extracts were then cleared by centrifugation at 20,000 g at 4° C. for 10 minutes. Cleared lysates were then transferred on ice in fresh tubes and then boiled in sample loading buffer (100 mM Tris-HCl pH 6.8, 4% SDS, 0.2% bromophenol blue, 20% glycerol, 200 mM p-mercaptoethanol) for 5 minutes prior to fractionation by SDS-PAGE and transfer to nitrocellulose membranes (PALL). […]

[4] = Body weight during TGI experiments; format: in vivo, NU(NCr)-Foxn1nu female mice; conditions: repeated oral treatment (QD or BID), Example 99 sodium salt suspension
Protocol: NU(NCr)-Foxn1nu mice were inoculated subcutaneously at the right flank with 1×10^6 (HCT-116 or A375) or 3×10^6 (A101D, A2058, RKO, HT29 SK-MEL 30, Calu-6, HepG2, Lovo, NCI-H2122, NCIH1666 and NCIH1755) tumour cells in 0.2 mL of the 50:50 PBS:Matrigel mixture for tumour development. Tumour measurements were taken with an electronic microcalliper three times weekly. In addition, body weights were recorded at these times. Tumor volume was calculated, taking length to be the longest diameter across the tumor and width to be the corresponding perpendicular diameter using the following formula: ((length×width×[…])/2).
For tumor growth inhibition (TGI) experiments, the treatment was performed when mean tumour size reached approximately 200 mm^3, with at least 7 mice for each time point randomized to balance the average tumour size for each treatment group. Mice were administered orally (QD or BID) with a suspension of Example 99 sodium salt in a formulation consisting of 1% NMP, 0.3% Tween-80, pH 9.1. Example 99: Na+ powder was directly resuspended in the complete blank formulation. Dosing volume was 10 mL/kg, yielding the indicated doses (doses are in mg per kg or mpk). Tumours were measured with an electronic microcalliper three times weekly. In addition, body weights were recorded at these times. Tumor volume was calculated as described above. […]

Sequence of BRAF (P15056 whole entry): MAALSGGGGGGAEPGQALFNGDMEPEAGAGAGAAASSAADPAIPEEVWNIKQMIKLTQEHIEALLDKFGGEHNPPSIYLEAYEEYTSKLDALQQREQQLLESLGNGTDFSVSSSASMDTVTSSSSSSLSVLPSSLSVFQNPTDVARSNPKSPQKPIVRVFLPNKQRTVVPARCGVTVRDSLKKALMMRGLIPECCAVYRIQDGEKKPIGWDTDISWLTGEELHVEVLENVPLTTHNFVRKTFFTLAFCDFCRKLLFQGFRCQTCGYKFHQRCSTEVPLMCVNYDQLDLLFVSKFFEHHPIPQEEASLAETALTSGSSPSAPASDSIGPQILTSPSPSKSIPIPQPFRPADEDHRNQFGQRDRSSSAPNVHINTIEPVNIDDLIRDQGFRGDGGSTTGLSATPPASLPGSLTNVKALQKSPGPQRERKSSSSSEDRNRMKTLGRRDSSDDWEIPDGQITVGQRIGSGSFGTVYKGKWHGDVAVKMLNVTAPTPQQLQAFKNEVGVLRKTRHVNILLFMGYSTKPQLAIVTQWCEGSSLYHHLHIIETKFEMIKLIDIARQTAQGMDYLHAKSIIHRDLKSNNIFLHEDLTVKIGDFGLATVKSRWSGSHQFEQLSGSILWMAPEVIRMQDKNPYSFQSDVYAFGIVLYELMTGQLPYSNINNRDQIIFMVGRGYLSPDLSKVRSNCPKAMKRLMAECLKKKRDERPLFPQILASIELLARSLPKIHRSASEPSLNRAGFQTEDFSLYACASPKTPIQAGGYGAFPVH

Nc1cccc2c1ncn2-c1ccc2ncnc(Nc3c(F)ccc(NS(=O)(=O)c4cccc(Cl)c4Cl)c3F)c2n1 [Example 99]
IC50 [1]: < 1 nM | IC50 [2]: < 10 nM | paradoxical induction of pERK or pMEK signaling (immunoblot) [3]: does not induce paradoxical induction of pERK or pMEK signaling | change in body weight compared to vehicle-treated animals [4]: did not result in any change in body weight
